In patent publication US20120258938A1, “Enzymatic Production or Chemical Synthesis and Uses for 5,7-Dienes and UVB Conversion Products Thereof” (priority 2008, published 2012):
Values belong to the molecule of their own block, whether it stands above or below them.

What was measured:
[1] = tested on: human osteosarcoma cell line MG-63; assay: Proliferation of MG-63 osteosarcoma cells; assay type: cell-based
Experimental: (§1) Cells were seeded in 96-well plate and incubated with 20-hydroxycholecalciferol in DMEM medium containing 5% FBS for 48 h (FIG. 25A) or 72 h (FIG. 25C) or for 24 h after a 12 h synchronization in serum free medium (FIG. 25D). […] was added for a final 18 h (FIGS. 25A, 25D) or 12 h (FIG. 25C) of incubation or cells were assessed with sulforhodamine assay (FIG. 25C). Data is shown as mean±SEM (n=5; FIG. 24C) or mean±SEM (n=6; FIGS. 24A, 24C, 24D) and was analyzed using GraphPrism 4.0.

Col1A1 mRNA = assay: Real time RT PCR Col1A1 mRNA, TGF-b1 stimulated skin fibroblasts; assay type: cell-based; details: human skin fibroblasts
Experimental: Additional studies using human skin fibroblasts were performed employing a type I collagen specific ELISA Chondrex, and real time RT PCR to quantitate type I collagen protein and Col1A1 mRNA expression in culture of human fibroblast stimulated by TGF-b1 in the presence and absence of 17,20S(OH)2pD3 and/or 20(OH)D3. These studies confirmed that Type I collagen protein production that was induced by TGF-b1 and that Col1A1 mRNA that was induced by TGF-b1 were suppressed by these analogues (FIGS. 44A-44B).

[2] = tested on: bleomycin-induced scleroderma in C57BL/6 mice; assay: Bleomycin-induced scleroderma in mice; assay type: in vivo, mouse
Experimental: […] The skin was injected S.C. with 20(OH)D3 or vehicle daily within the same 1.5 cm^2 area. On day 22, all mice were euthanized and skin in the shaved area of the back was treated with a depilatory agent after which a biopsy of 1 cm circumference encompassing the S.C. injection site was taken to a depth to include the full thickness of the dermis. The skin samples from 5 randomly selected mice from each group were weighed and snap frozen in liquid nitrogen. Later, the skin samples were thawed and treated overnight with pepsin (0.1 mg/ml) of 0.5 M acetic acid at 4° C. with constant rocking to remove terminal non-helical telopeptides to release the collagen into solution. Total solubilized collagen was quantitative using a Sircol Collagen Assay kit using type I bovine collagen to obtain a standard curve. The collagen content of the skin samples was expressed as μg of collagen per mg tissue weight. Results for the groups were expressed as mean±SEM and analyzed by one way ANOVA with p values<0.05 considered to be statistically significant.

[3] = tested on: human breast carcinoma cell line MD-MBA-231; assay: Proliferation of MD-MBA-231 breast carcinoma cells; assay type: cell-based; details: MD-MBA-231, 48 h, [3H]-thymidine
Experimental: as §1

[4] = tested on: AbC1 hamster melanoma cells; assay: Soft agar colony formation, AbC1 melanoma; assay type: cell-based
Experimental: Growth and survival of prostate cancer cells (PC3) and melanoma cells SKMEL 188 and AbC1 was determined by following their ability to form colonies in soft agar. Cells growing in monolayer culture were trypsinized and resuspended (1,000 cells/well) in 0.25 ml medium containing 0.4% agarose and 5% charcoal stripped serum (HyClone).
Cell suspensions were added to 0.8% agar layer in 24 well plates. Compounds were added from ethanol stocks (100 μM) to final concentrations of 0.1 nM or 10 nM, in 100 μL media. Each condition was tested in quadruplicate. An ethanol solvent control (amount of ethanol equivalent to test) as well as a media-only control was included in the assay. […] […] Colonies were then counted under the microscope and number of units was calculated as number of colonies formed divided by the number of cells seeded×100.

[5] = tested on: HL-60 human promyelocytic leukemia cells; assay: Monocytic differentiation (NBT), HL-60; assay type: cell-based; details: HL-60, 0.1 μM
Experimental: HL-60 human promyelocytic and U937 promonocytic leukemia cells were treated with the drugs at 0.1 μM or vehicle (negative control or 12-O-tetradecanoylphorbol-13-acetate (TPA) (positive control). Media were changed every 72 h and test substances added fresh every day. Differentiation toward monocytes-like morphology and NBT-reduction has been assessed after 5 and 7 days. Cells (2×106) were washed with PBS four times and resuspended in 200 μL of NBT solution (4 mg/mL) in water. After the addition of 200 ul of TPA solution (2 ug/ml) in PBS cells were incubated at 37° C. for 60 min in 24-well plates. Cell differentiation was assessed by intracellular blue formazan deposits. The NBT positive and negative cells were scored under light microscopy examination (40×) with a minimum of 200 cells scored.
For spectrophotometric analysis the cells were washed twice with buffer containing cold bovine serum albumin solution (17 mg/mL BSA, 137 mmol/L, NaCl, 5 mmol/L, KCl, 0.8 mmol/L, MgSO4, […], HEPES, pH7.4) to remove unreacted NBT, and the insoluble formazan deposits in the resulting pellet were solubilized in 1 mL of a mixture containing 90% DMSO, 0.1% SDS and 0.01 mmol/L NaOH by vigorous vortexing. The samples were centrifuged 5 min at 1500 g to remove the cellular debris, and then the absorbance of supernatants was measured at 715 nm. Data are expressed as change in A715/106 cells.

[6] = tested on: K562 human chronic myeloid leukemia cells; assay: Erythroid differentiation of K562 cells; assay type: cell-based; details: 10^-7 M, 7 days
Experimental: K562 human chronic myeloid leukemia (erythroleukemia) and MEL mouse erytholeukemia cells were cultured in RPMI 1640 containing 10% FBS and treated with the drugs at concentrations 0.1 μM. A 0.1% ethanol (EtOH) or 2% DMSO were used as negative or positive control, respectively to estimate the vehicle effect and the ability of the cells to differentiate. Media were exchanged every 72 h and drugs added every day. Growth of cultures was estimated by counting number of viable cells (trypan blue negative cells) as described previously.
To estimate erythroid differentiation (production of hemoglobin), first the number of benzidine positive cells was evaluated after 2 and 7 days in culture. Cells were centrifuged and washed four times with PBS and resuspended in 1 mL of fresh PBS. For hemoglobin determination, a benzidine staining solution was freshly prepared by mixing one part of 30% hydrogen peroxide, one part of base stock solution of 3% benzidine in 90% acetic acid, and 5 parts of water. The solution was diluted 1:10 with the cell suspension and aliquoted in 4 wells in 24-well plate (250 μl each). After 10 min of incubation at RT benzidine-positive cells were counted under the microscope with a minimum of 200 cells scored.
Second, to define spectrophotometrically relative content of hemoglobin, equal number of cells (7×106) were washed with cold PBS and lysed for 20 min in 100 μL of lysis buffer (0.2% Triton X-100 in […] potassium phosphate buffer, pH 7.8). The lysates were centrifuged for 15 min at 1500 r.p.m. and 100 μL of the supernatant was incubated with 2 mL of benzidine solution (5 mg/mL in glacial acetic acid) and 2 ml 30% H2O2 for 10 min increases in comparison with the level of hemoglobin in mock-induced K562 or MEL cells.

EC50 [1]: 570 nM
EC50 [3]: 10 nM
Structure (SMILES): C=C1CC[C@H](O)C/C1=C/C=C1\CCC[C@@]2(C)[C@H]1CC[C@@H]2[C@@](C)(O)CCCC(C)C [20(OH)D3, (5Z,7E)-9,10-secocholesta-5,7,10(19)-triene-3β,20-diol]
TGF-b1 induced Col1A1 mRNA (Col1A1 mRNA): suppressed
bleomycin-induced increase of total skin collagen ([2]; 3 μg/kg daily dose, 21 days): prevented
body weight less than the vehicle control group ([2]; bleomycin + 20(OH)D3, 21 days): 13.6%

Structure (SMILES): C=C1CC[C@H](O)C/C1=C/C=C1\CCC[C@]2(C)[C@@H](C(C)(O)CC(O)CC(C)C)CC[C@@H]12 (stereo partly drawn) [20,23-dihydroxycholecalciferol, (5Z,7E)-9,10-secocholesta-5,7,10(19)-triene-3β,20,23-triol]
decrease of colony formation in soft agar ([4]; AbC1, 0.1 nM): 30%
decrease of colony formation in soft agar ([4]; AbC1, 10 nM): approximately 50%

Structure (SMILES): C=C1CC[C@H](O)C/C1=C/C=C1\CCC[C@]2(C)[C@@H](C(C)=O)CC[C@@H]12 [pD3, (5Z,7E)-3β-hydroxy-9,10-secopregna-5,7,10(19)-trien-20-one]
monocytic differentiation (NBT staining) [5]: induce monocytic differention
differentiation of K562 cells [6]: induce differentiation
